According to ChEMBL document CHEMBL4017521, “Direct NMR Probing of Hydration Shells of Protein Ligand Interfaces and Its Application to Drug Design” (J Med Chem, 2017):
The source made the active and inactive calls. No cut-off for these calls is given here.

Target: Bromodomain-containing protein 4 (Homo sapiens, UniProt O60885)
Assay: Inhibition of recombinant human N-terminal His6-tagged Brd4-BD1 expressed in Escherichia coli BL21(DE3) by LOGSY NMR titration method

SMILES | IC50 [µM] | inhibition
Cc1nnc2ccc(-c3cnn(C)c3Oc3ccccc3)nn12 | 2 | 
COc1ccc(-c2ccc3nnc(C)n3n2)cc1OC | 24 | 
Cc1nnc2c(N)cc(-c3cnn(C)c3Oc3ccccc3)nn12 |  | Active
CNc1cc(N(C)Cc2ccccc2)nn2c(C)nnc12 |  | Active
Cc1nnc2ccc(-c3ccccc3)nn12 |  | Active
Cc1nnc2ccc(N(C)Cc3ccc(F)c(F)c3)nn12 |  | Active
CNc1cc(-c2ccccc2)nn2c(C)nnc12 |  | Active
